{
  "source": "patent US8361510B2",
  "about": "“Nanogels for cellular delivery of therapeutics” (Georgia Tech Research Corporation, priority 2008, dated 2013)",
  "tested_on": "EGFR",
  "experiment": "EGFR expression by immunoblotting in Hey cells",
  "format": "cell-based",
  "method": "Immunoblotting. Hey cells were plated into 6-well plates (5×10^5/well) and allowed to adhere overnight at 37° C., 5% CO2. The cells were lysed with 100 μL of lysis buffer (50 mM Tris-HCl, pH 7.5, 150 mM NaCl, 2 mM EDTA (Fisher), 2 mM EGTA (Fisher), 1 mM sodium orthovanadate, 2.5 mM sodium pyrophosphate, 1 mM β-gycerolphosphate, 1 mM phenylmethanesulfonyl fluoride, 10 μg/mL aprotinin, 10 μg/mL leupeptin, 1% Triton X-100, and 5% glycerol), and the cell lysates sonicated four times for five seconds each. The lysates were cleared by centrifugation at 11,000×g rcf for […] at 4° C. Cell lysates were prepared for analysis by the addition of an equal volume of Laemmli 2× sample buffer. The samples were heated to 95° C. for […] to denature the proteins. The proteins were separated on a 10% SDS-PAGE gel and transferred onto nitrocellulose. The blots were blocked with either 5% nonfat dry milk (NFDM) or 5% bovine serum albumin (BSA) in 10 mM Tris-buffered saline, pH 7.5 plus 1% Tween 20 (TBST, BioRad) for 1 hour at room temperature. The blots were probed with anti-EGFR antibody (Cell Signaling, Danvers, Mass.; cat. no. 4405) or with a β-actin antibody (Millipore, Billerica, Mass.; Mab1501) diluted in 5% NFDM or 5% BSA overnight, with shaking at 4° C. For EphA2 detection, the blots were probed with an anti-EphA2 polyclonal antibody (Santa Cruz Biotechnology, Santa Cruz, Calif.; sc-294). The blots were washed three times with TBST and probed with goat anti-rabbit IgG (Santa Cruz, sc-2004) or with goat anti-mouse IgG (Santa Cruz, sc-2005) linked to horseradish peroxidase (HRP). Bands were visualized on film (Pierce) using the ECL reagent, SuperSignal West Pico™ (Pierce).\nAs described above, we chose siRNA targeting EGFR; knockdown of this receptor is non-lethal, but has clinical relevance in the treatment of drug resistant ovarian carcinomas. To determine if we could effectively knockdown EGFR in vitro, EGFR siRNA was encapsulated at a concentration of 16.6 μg of EGFR siRNA/mg of nanogels, using the loading technique described above. […]",
  "note": "Where no end group is shown, it is not given here.",
  "data": [
    {"substance": "YSA-conjugated nanogels: core/shell pNIPMAm nanogels with YSA peptide coupled to shell amines via maleimide (EMCA) (YSAYPDSVPMMSC; also: coupled to nanogel shell amines via maleimide (EMCA))", "values": [
      {"measurement": "EGFR expression relative to controls", "setting": "Example 1, 4 h incubation, harvested at 48 hours, 1 mg nanogels/5×10^5 cells", "result": "small, statistically insignificant decrease"},
      {"measurement": "EGFR expression of control treatments compared to untreated cells", "setting": "Example 2", "result": "slight decrease"}
    ]}
  ]
}
